{"source": "patent US7625875B2", "about": "(priority 2002, dated 2009)", "key": {"HepG2 cells": {"test_system": "HepG2 cells", "assay": "Cellular RNA synthesis, [3H]-uridine incorporation", "conditions": "read-out: CC50 RNA ([3H]Uridine); 50% reduction of uridine incorporation into cellular RNA"}, "MCMV": {"test_system": "MCMV", "assay": "Antiviral activity, MCMV (MEF)", "assay_type": "cell-based"}, "BVDV": {"test_system": "BVDV", "assay_type": "cell-based, bovine viral diarrhea virus", "conditions": "for EC4 log: MDBK"}, "RSV type A": {"test_system": "RSV type A", "assay": "Antiviral activity, RSV type A (MA-104)", "assay_type": "cell-based", "conditions": "human respiratory syncytial virus, MA104"}, "Polio Virus Sb-1": {"test_system": "Polio Virus Sb-1", "assay": "organism not typed", "assay_type": "cell-based", "conditions": "Vero"}, "[1]": {"test_system": "LLC-MK2, Rhesus monkey kidney cells", "conditions": "Punta Toro A line"}, "[2]": {"test_system": "MDCK, canine kidney cells", "assay": "Cytotoxicity, MDCK", "assay_type": "cell-based"}, "HSV-2": {"test_system": "HSV-2", "assay": "Antiviral activity, HSV-2 (HFF)", "assay_type": "cell-based", "conditions": "Human alphaherpesvirus 2"}, "HSV-1": {"test_system": "HSV-1", "assay": "Antiviral activity, HSV-1 (HFF)", "assay_type": "cell-based", "conditions": "Human alphaherpesvirus 1"}, "[3]": {"test_system": "A549, Human lung carcinoma cells", "assay": "Cytotoxicity, A549", "assay_type": "cell-based", "conditions": "Adenovirus type 1 line"}}, "note": "Like-named read-outs stand apart in the source and are kept apart here."}
{"compound": "CC1(O)C(O)C(CO)OC1n1ccc(N)nc1=O", "note": "(centres unmarked) [mCyd, 4-Amino-1-(3,4-dihydroxy-5-hydroxymethyl-3-methyl-tetrahydro-furan-2-yl)-1H-pyrimidine-2-one]", "values": [{"measurement": "CC50", "setting": "HepG2 cells", "result": "186 ± 28.2", "unit": "µM"}, {"measurement": "EC50", "setting": "MCMV", "result": "> 0.8", "unit": "µM"}, {"measurement": "EC4 log", "setting": "BVDV; BVDV I-N-dIns ncp (recombinant)", "result": 7.14, "unit": "μM"}, {"measurement": "EC4 log", "setting": "BVDV; BVDV I-NADL cp (recombinant)", "result": 8.22, "unit": "μM"}, {"measurement": "suppression of de novo BVDV production", "setting": "BVDV; subcytotoxic concentrations (circa 20 μM)", "result": "up to 6 logs"}, {"measurement": "EC50", "setting": "RSV type A", "result": "> 200", "unit": "µM"}, {"measurement": "EC50", "setting": "Polio Virus Sb-1", "result": 6, "unit": "µM"}, {"measurement": "CC50", "setting": "[1]", "result": "> 200", "unit": "µM"}, {"measurement": "CC50", "setting": "[2]; Influenza A/H1N1 line", "result": "> 200", "unit": "µM"}, {"measurement": "CC50", "setting": "[2]; Influenza A/H3N2 line", "result": "45 to 65", "unit": "µM"}, {"measurement": "CC50", "setting": "[2]; Influenza B line", "result": "55 to 140", "unit": "µM"}, {"measurement": "EC50", "setting": "HSV-2", "result": "> 100", "unit": "µg/mL"}, {"measurement": "EC50", "setting": "HSV-1", "result": "> 100", "unit": "µg/mL"}, {"measurement": "CC50", "setting": "[3]", "result": "> 200", "unit": "µM"}]}
